Ki and Activity data for 15 compounds are collected here from ChEMBL document CHEMBL3352098, “A class of 4-sulfamoylphenyl-ω-aminoalkyl ethers with effective carbonic anhydrase inhibitory action and antiglaucoma effects” (J Med Chem, 2014).

The target of one experiment is Carbonic anhydrase 9 (Homo sapiens, UniProt Q16790). Put plainly: Inhibition of human CA-9 by stopped flow CO2 hydrase assay.
In another experiment the test system is Oryctolagus cuniculus. Put plainly: Antiglaucoma activity in New Zealand albino rabbit assessed as reduction in hypertonic saline-induced intraocular pressure at 2% solution administered topically measured after 2 hrs. Type of experiment: functional, organism-based. The following applies: Eye.

Active and inactive are the calls of the source. The rule behind the calls is not given here.

What is called Ki is a measure of affinity in units of concentration, obtained from inhibition or displacement. Low values mean a stronger hold on the target, high ones a looser hold on the target. `CC(C)(C)OC(=O)NCCCCCOc1ccc(S(N)(=O)=O)cc1` showed a Ki at Carbonic anhydrase 9 of 7.1 nM.

Consider `NS(=O)(=O)c1ccc(OCCCCNC(=S)Nc2ccc(-c3c4ccc(=O)cc-4oc4cc(O)ccc34)c(C(=O)O)c2)cc1`, for which, on Carbonic anhydrase 9, the Ki was 8.8 nM.

`NCCCCCOc1ccc(S(N)(=O)=O)cc1` returned a Ki at Carbonic anhydrase 9 of 6.6 nM.

`NCCOc1ccc(S(N)(=O)=O)cc1` showed a Ki at Carbonic anhydrase 9 of 8.7 nM.

As for `NCCCOc1ccc(S(N)(=O)=O)cc1`, the Ki at Carbonic anhydrase 9 was determined as 17.9 nM.

In the case of `NCCCCOc1ccc(S(N)(=O)=O)cc1`, the Ki on Carbonic anhydrase 9 was 32.6 nM. The result in the experiment on Oryctolagus cuniculus was Active.

`NS(=O)(=O)c1ccc(OCCNC(=S)Nc2ccc(-c3c4ccc(=O)cc-4oc4cc(O)ccc34)c(C(=O)O)c2)cc1` had a Ki at Carbonic anhydrase 9 of 8.5 nM.

On to `CN(C)c1ccc2c(-c3ccc(NC(=S)NCCOc4ccc(S(N)(=O)=O)cc4)cc3C(=O)O)c3ccc(=[N+](C)C)cc-3oc2c1`, for which, at Carbonic anhydrase 9, the affinity, expressed as Ki, was 9.6 nM.

`CC(C)(C)OC(=O)NCCOc1ccc(S(N)(=O)=O)cc1`: on Carbonic anhydrase 9, the affinity, expressed as Ki, was 8.3 nM.

`CN(C)c1ccc2c(-c3ccc(NC(=S)NCCCOc4ccc(S(N)(=O)=O)cc4)cc3C(=O)O)c3ccc(=[N+](C)C)cc-3oc2c1` had a Ki at Carbonic anhydrase 9 of 7.9 nM.

`NS(=O)(=O)c1ccc(OCCCNC(=S)Nc2ccc(-c3c4ccc(=O)cc-4oc4cc(O)ccc34)c(C(=O)O)c2)cc1` yielded a Ki on Carbonic anhydrase 9 of 7.2 nM.

In turn, `CC(C)(C)OC(=O)NCCCCCCOc1ccc(S(N)(=O)=O)cc1` registered a Ki at Carbonic anhydrase 9 of 6.9 nM.

With `CC(C)(C)OC(=O)NCCCOc1ccc(S(N)(=O)=O)cc1`, the affinity at Carbonic anhydrase 9, expressed as Ki, was 5.8 nM.

As to `CC(C)(C)OC(=O)NCCCCOc1ccc(S(N)(=O)=O)cc1`, in the experiment on Oryctolagus cuniculus, the result was Active.

Compound `NCCCCCCOc1ccc(S(N)(=O)=O)cc1` had a Ki on Carbonic anhydrase 9 of 6.5 nM.
